Test results from ChEMBL document CHEMBL2029217, “Design, synthesis, and structure-activity relationships of novel spiro-piperidines as acetyl-CoA carboxylase inhibitors” (Bioorg Med Chem Lett, 2012).

Legend:
[1] = Clearance in human hepatic microsomes assessed per mg protein at 1 uM after 20 mins by HPLC analysis; type: ADME, Microsome; settings: liver microsomes, read-out: CLH
[2] = Lipophilicity, log D of the compound at pH 7.4; settings: buffer
Acetyl-CoA carboxylase 1 = Acetyl-CoA carboxylase 1 (Homo sapiens, UniProt Q13085); assay: Inhibition of human ACC1 using acetyl-coA as substrate incubated for 60 mins prior to substrate addition measured after 20 mins by malachite green assay
Acetyl-CoA carboxylase 2 = Acetyl-CoA carboxylase 2 (Homo sapiens, UniProt O00763); assay: Inhibition of human ACC2 using acetyl-coA as substrate incubated for 60 mins prior to substrate addition measured after 20 mins by malachite green assay
Chain of Acetyl-CoA carboxylase 2 (O00763 whole entry): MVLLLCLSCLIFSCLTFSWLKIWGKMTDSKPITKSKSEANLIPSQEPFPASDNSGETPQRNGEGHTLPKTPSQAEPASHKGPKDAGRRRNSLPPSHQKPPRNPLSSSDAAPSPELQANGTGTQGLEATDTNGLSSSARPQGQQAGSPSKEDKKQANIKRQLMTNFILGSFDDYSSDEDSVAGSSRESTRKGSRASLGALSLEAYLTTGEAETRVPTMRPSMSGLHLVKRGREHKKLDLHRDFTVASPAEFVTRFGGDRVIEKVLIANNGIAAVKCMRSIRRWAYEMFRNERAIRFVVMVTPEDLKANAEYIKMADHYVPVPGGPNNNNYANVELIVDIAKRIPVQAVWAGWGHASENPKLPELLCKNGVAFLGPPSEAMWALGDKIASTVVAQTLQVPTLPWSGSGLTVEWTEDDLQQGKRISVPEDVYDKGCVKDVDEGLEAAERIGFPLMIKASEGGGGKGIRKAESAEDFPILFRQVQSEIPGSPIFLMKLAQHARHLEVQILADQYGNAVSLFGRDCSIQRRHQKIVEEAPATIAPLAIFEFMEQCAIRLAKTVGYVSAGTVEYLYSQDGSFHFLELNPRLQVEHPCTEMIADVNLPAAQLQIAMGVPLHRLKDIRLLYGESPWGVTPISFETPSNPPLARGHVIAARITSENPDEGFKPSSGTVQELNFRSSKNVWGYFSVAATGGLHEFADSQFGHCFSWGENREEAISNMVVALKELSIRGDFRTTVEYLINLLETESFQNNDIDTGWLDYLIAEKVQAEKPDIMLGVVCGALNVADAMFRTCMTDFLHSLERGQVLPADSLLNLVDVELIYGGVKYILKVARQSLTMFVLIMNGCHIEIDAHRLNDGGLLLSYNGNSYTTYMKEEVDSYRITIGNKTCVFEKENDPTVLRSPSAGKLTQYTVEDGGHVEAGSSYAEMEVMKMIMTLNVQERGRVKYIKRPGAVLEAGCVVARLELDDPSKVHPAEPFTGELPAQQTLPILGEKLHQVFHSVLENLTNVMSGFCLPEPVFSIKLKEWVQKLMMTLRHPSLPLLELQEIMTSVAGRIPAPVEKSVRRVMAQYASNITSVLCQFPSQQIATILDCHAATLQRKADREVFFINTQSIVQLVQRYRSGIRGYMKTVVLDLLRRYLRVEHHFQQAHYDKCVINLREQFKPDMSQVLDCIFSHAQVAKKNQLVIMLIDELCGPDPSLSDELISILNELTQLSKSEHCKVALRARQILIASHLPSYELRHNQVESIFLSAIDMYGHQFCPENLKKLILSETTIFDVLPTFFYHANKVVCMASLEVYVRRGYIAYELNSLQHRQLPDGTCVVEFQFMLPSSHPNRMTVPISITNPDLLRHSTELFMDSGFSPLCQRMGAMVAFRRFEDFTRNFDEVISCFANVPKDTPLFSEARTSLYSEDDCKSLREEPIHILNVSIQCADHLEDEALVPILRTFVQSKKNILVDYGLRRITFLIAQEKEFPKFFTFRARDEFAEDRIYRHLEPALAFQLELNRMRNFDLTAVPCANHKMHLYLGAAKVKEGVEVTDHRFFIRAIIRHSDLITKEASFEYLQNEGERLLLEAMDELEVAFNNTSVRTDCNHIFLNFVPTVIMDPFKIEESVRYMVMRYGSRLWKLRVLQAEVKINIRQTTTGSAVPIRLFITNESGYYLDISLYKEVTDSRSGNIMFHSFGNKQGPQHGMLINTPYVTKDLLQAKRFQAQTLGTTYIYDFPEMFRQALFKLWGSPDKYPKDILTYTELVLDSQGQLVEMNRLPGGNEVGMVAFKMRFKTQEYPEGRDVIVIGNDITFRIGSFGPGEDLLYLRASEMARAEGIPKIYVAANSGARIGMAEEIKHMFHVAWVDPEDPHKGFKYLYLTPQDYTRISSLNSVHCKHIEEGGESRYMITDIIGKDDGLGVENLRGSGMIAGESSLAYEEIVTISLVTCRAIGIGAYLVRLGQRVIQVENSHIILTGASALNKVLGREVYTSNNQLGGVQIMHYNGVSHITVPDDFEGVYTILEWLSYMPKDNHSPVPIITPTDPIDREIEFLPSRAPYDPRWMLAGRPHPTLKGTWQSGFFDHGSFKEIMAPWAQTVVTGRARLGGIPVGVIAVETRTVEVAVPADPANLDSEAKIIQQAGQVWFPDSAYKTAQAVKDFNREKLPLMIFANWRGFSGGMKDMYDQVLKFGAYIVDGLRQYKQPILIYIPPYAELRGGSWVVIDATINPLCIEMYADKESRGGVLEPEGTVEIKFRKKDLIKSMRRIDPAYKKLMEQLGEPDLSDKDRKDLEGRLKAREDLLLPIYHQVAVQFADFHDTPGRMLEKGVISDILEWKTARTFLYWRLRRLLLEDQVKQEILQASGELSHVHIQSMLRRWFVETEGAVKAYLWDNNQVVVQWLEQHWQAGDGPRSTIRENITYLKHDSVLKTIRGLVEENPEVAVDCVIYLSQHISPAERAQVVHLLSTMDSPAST

[3] = Tmax in Crl:CD(SD)(IGS) rat at 3 mg/kg, po; type: ADME, organism-based; set-up: dose 3 mg/kg, route oral; settings: in vivo
[4] = Total clearance in Crl:CD(SD)(IGS) rat at 1 mg/kg, iv; type: ADME, organism-based; set-up: dose 1 mg/kg, route intravenous; settings: in vivo
[5] = AUC in Crl:CD(SD)(IGS) rat at 3 mg/kg, po; type: ADME, organism-based; set-up: dose 3 mg/kg, route oral; settings: plasma
[6] = Mean residence time in Crl:CD(SD)(IGS) rat at 1 mg/kg, iv; type: ADME, organism-based; set-up: dose 1 mg/kg, route intravenous; settings: in vivo
[7] = Cmax in Crl:CD(SD)(IGS) rat at 3 mg/kg, po; type: ADME, organism-based; set-up: dose 3 mg/kg, route oral; settings: in vivo
[8] = Oral bioavailability in Crl:CD(SD)(IGS) rat at 3 mg/kg; type: ADME, organism-based; settings: in vivo
[9] = Volume of distribution at steady state in Crl:CD(SD)(IGS) rat at 1 mg/kg, iv; type: ADME, organism-based; set-up: dose 1 mg/kg, route intravenous; settings: in vivo, read-out: Vdss

| SMILES | microsomal CLint at 1 µM [1] | logD [2] | IC50 (Acetyl-CoA carboxylase 1) | IC50 (Acetyl-CoA carboxylase 2) | Tmax [3] | clearance [4] | AUC [5] | MRT [6] | Cmax [7] | bioavailability [8] | Vd [9] |
| --- | --- | --- | --- | --- | --- | --- | --- | --- | --- | --- | --- |
| CCNC(=O)Nc1sc2nc(C)ccc2c1C(=O)N1CCC(N2CCCC3(C2)OC(=O)N(C(C)C)C3=O)CC1 (stereo not given) | 38 µL/min/mg | 2.39 | 0.16 µM | 0.015 µM | – | – | – | – | – | – | – |
| CCNC(=O)Nc1sc2ccccc2c1C(=O)N1CCC(N2CCCC3(CCNC3=O)C2)CC1 (racemic) | 35 µL/min/mg | 2.06 | 0.65 µM | 0.079 µM | – | – | – | – | – | – | – |
| CCNC(=O)Nc1sc2ccccc2c1C(=O)N1CCC(N2CCCC3(C2)NC(=O)N(CC)C3=O)CC1 (racemic) | 110 µL/min/mg | 2.44 | 0.28 µM | 0.022 µM | – | – | – | – | – | – | – |
| CCNC(=O)Nc1sc2ccccc2c1C(=O)N1CCC(N2CCCC3(CC(=O)N(CC)C3=O)C2)CC1 (racemic) | 130 µL/min/mg | – | 0.23 µM | 0.032 µM | – | – | – | – | – | – | – |
| CCN1C(=O)CC2(CCCN(C3CCN(C(=O)c4c(NC(N)=O)sc5ccccc45)CC3)C2)C1=O (stereo not given) | 64 µL/min/mg | 2.2 | 0.35 µM | 0.023 µM | – | – | – | – | – | – | – |
| CCN1C(=O)OC2(CCCN(C3CCN(C(=O)c4c(NC(N)=O)sc5ccccc45)CC3)C2)C1=O (racemic) | 41 µL/min/mg | 1.85 | – | – | – | – | – | – | – | – | – |
| CCNC(=O)Nc1sc2ccccc2c1C(=O)N1CCC(N2CCCC3(CCN(C)C3=O)C2)CC1 (racemic) | 45 µL/min/mg | 2.23 | 0.51 µM | 0.064 µM | – | – | – | – | – | – | – |
| CCC1=NC2(CCCN(C3CCN(C(=O)c4c(NC(N)=O)sc5ccccc45)CC3)C2)C(=O)N1CC (racemic) | 150 µL/min/mg | 2.09 | 0.41 µM | 0.043 µM | – | – | – | – | – | – | – |
| CCNC(=O)Nc1sc2ccccc2c1C(=O)N1CCC(N2CCC[C@@]3(C2)CC(C)(C)OC3=O)CC1 | 230 µL/min/mg | 3.01 | – | – | – | – | – | – | – | – | – |
| CNC(=O)Nc1sc2nc(C)ccc2c1C(=O)N1CCC(N2CCC[C@]3(CC(=O)N(C(C)C)C3=O)C2)CC1 | 33 µL/min/mg | 2.51 | 0.16 µM | 0.0085 µM | 30 min | 15.8 mL/min/kg | 1400 ng·h/mL | 78 min | 440 ng/mL | 45% | 1.3 L/kg |
| CCNC(=O)Nc1sc2ccccc2c1C(=O)N1CCC(N2CCCC3(C2)C(=O)N(CC)C(=O)N3C)CC1 (racemic) | 190 µL/min/mg | 2.79 | 0.36 µM | 0.051 µM | – | – | – | – | – | – | – |
| CCNC(=O)Nc1sc2ccccc2c1C(=O)N1CCC(N2CCCC3(CCN(CC)C3=O)C2)CC1 (racemic) | 71 µL/min/mg | 2.62 | 0.35 µM | 0.033 µM | – | – | – | – | – | – | – |
| CCNC(=O)Nc1sc2ccccc2c1C(=O)N1CCC(N2CCCC3(C2)OC(=O)N(CC)C3=O)CC1 (racemic) | 98 µL/min/mg | 2.47 | 0.19 µM | 0.04 µM | – | – | – | – | – | – | – |
| CCNC(=O)Nc1sc2ccccc2c1C(=O)N1CCC(N2CCCC3(C2)CC(C)(C)OC3=O)CC1 (racemic) | 180 µL/min/mg | 3.01 | – | – | – | – | – | – | – | – | – |
| CCNC(=O)Nc1sc2cccnc2c1C(=O)N1CCC(N2CCCC3(C2)CC(C)(C)OC3=O)CC1 (racemic) | 120 µL/min/mg | 2.45 | 0.15 µM | 0.027 µM | – | – | – | – | – | – | – |
| CCN1C(=O)C2(CCCN(C3CCN(C(=O)c4c(NC(N)=O)sc5ccccc45)CC3)C2)N=C1C (racemic) | 60 µL/min/mg | 1.77 | 0.3 µM | 0.075 µM | – | – | – | – | – | – | – |

Second part, the compound after the results:

| microsomal CLint at 1 µM [1] | logD [2] | IC50 (Acetyl-CoA carboxylase 1) | IC50 (Acetyl-CoA carboxylase 2) | Tmax [3] | clearance [4] | AUC [5] | MRT [6] | Cmax [7] | bioavailability [8] | Vd [9] | SMILES |
| --- | --- | --- | --- | --- | --- | --- | --- | --- | --- | --- | --- |
| 45 µL/min/mg | 2.43 | 0.093 µM | 0.009 µM | – | – | – | – | – | – | – | CCNC(=O)Nc1sc2nc(C)ccc2c1C(=O)N1CCC(N2CCC[C@]3(CCN(C(C)C)C3=O)C2)CC1 |
| 110 µL/min/mg | 2.32 | 0.15 µM | 0.037 µM | – | – | – | – | – | – | – | CCNC(=O)Nc1sc2nccnc2c1C(=O)N1CCC(N2CCCC3(C2)CC(C)(C)OC3=O)CC1 (racemic) |
| 66 µL/min/mg | 2.61 | 0.12 µM | 0.018 µM | – | – | – | – | – | – | – | CNC(=O)Nc1sc2ccccc2c1C(=O)N1CCC(N2CCCC3(CCN(C(C)C)C3=O)C2)CC1 (racemic) |
| 79 µL/min/mg | 2.49 | 0.078 µM | 0.014 µM | – | – | – | – | – | – | – | CCNC(=O)Nc1sc2nc(C)ccc2c1C(=O)N1CCC(N2CCCC3(C2)CC(C)(C)OC3=O)CC1 (racemic) |
| 47 µL/min/mg | 2.27 | 0.076 µM | 0.015 µM | – | – | – | – | – | – | – | CCNC(=O)Nc1sc2nc(C)ccc2c1C(=O)N1CCC(N2CCCC3(C2)N=C(C)N(C(C)C)C3=O)CC1 (stereo not given) |
| 26 µL/min/mg | 2.39 | 0.15 µM | 0.017 µM | – | – | – | – | – | – | – | CCNC(=O)Nc1sc2nc(C)ccc2c1C(=O)N1CCC(N2CCCC3(C2)NC(=O)N(C(C)C)C3=O)CC1 (racemic) |
| 230 µL/min/mg | 2.43 | 0.08 µM | 0.017 µM | – | – | – | – | – | – | – | CCN1C(=O)C2(CCCN(C3CCN(C(=O)c4c(NC(N)=O)sc5ccccc45)CC3)C2)N=C1C(C)C (racemic) |
| 90 µL/min/mg | 2.18 | 0.048 µM | 0.0044 µM | – | – | – | – | – | – | – | CNC(=O)Nc1sc2nc(C)ccc2c1C(=O)N1CCC(N2CCC[C@@]3(C2)CC(C)(C)OC3=O)CC1 |
| 110 µL/min/mg | 2.08 | 0.11 µM | 0.016 µM | – | – | – | – | – | – | – | CCNC(=O)Nc1sc2ncccc2c1C(=O)N1CCC(N2CCCC3(C2)CC(C)(C)OC3=O)CC1 (racemic) |
